The target in data set [1] is T1, HIV-1 Nucleocapsid Protein (NCp7) (Human immunodeficiency virus type 1 group M subtype B, UniProt P12493).
T1 construct: The NCp7 protein containing 2 Zn-fingers and 2 Zn ions is incubated with drug
Briefly: Zinc extrusion assay (TSQ fluorescence) from the zinc fingers of HIV-1 nucleocapsid protein (NCp7). In kind it is biochemical. The source says:
The compounds of the present invention cause the extrusion of zinc from the nucleocapsid protein (NCp7) of HIV-1. The NC protein is highly conserved among all retroviruses (South T., Blake P., et al., Biochemistry, 1990;29:7786) and is essential for viral infectivity (Aldovini A. and Young R., J. Virology, 1990;64:1920 and Gorelick R., Nigida S., et al., J. Virology, 1990;64:3207). The zinc is normally held in NC proteins by 1 or 2 zinc fingers. In the case of HIV-1, 2 zinc fingers are present (Summers M., South T., et al., Biochemistry, 1990;29:329) and are involved specifically with the PSI site on viral RNA which controls the packaging of viral RNA. Interference of this packaging causes the formation of non-infectious virions (Dannull J., Surovoy A., et al., EMBO, 1994;13:1525). It has previously been shown that compounds that cause zinc extrusion have potent anti-HIV activity in multiple cell lines and against all retroviruses (Rice W., Schaeffer C., et al., Nature, 1993;361:473).
A fluorescence-based assay has been developed to monitor the ejection of zinc from purified HIV-1 NCp7. The fluorophore, N-(6-methoxy-8-quinolyl)-p-toluenesulfonamide (TSQ), has an increased fluorescent signal upon bonding zinc ion in solution. The NCp7 protein containing 2 Zn-fingers and 2 Zn ions is incubated with drug causing the extrusion of Zn ions. The released Zn is then sequestered by the TSQ and the increased fluorescence monitored relative to control. […] Fluorescence (excitation 355 nm emission 400 nm) was monitored versus time. Controls were the NCp7 under assay conditions without drug, and apo NCp7 (no Zn) with drug. The % Zn extrusion was calculated based on the actual fluorescence measured divided by the fluorescence of all theoretical Zn extruded (5.6 μM)×100.
Table 1 below presents data for several invention compounds evaluated in the zinc extrusion assay described above.

For the next data set, the system named is HIV-1. Briefly: CEM cell assay, anti-HIV-1 activity. The class given is cell-based. The following applies: Human immunodeficiency virus 1, CCRF-CEM, HIV-1, 6 or 7 days, read-out: EC50 (Effective Concentration which protects cells from viral cytopathic effects). The source says: The test systems utilized to establish the antiviral activity of the arylthio compounds of this invention are well recognized in the art and are routinely employed for such purpose. For example, the assay utilized to evaluate the compounds activity against the HIV virus is that employed by the U.S. National Cancer Institute as described by Weislow O. S., et al., J. Natl. Cancer Inst., 1989;81:577-586, incorporated herein by reference.
The procedure is designed to detect agents acting at any stage of the virus reproductive cycle. The assay basically involves the killing of T4 lymphocytes by HIV. Small amounts of HIV are added to cells, and at least two complete cycles of virus reproduction are necessary to obtain the required cell killing. Agents which interact with virions, cells, or virus gene-products to interfere with viral activities will protect cells from cytolysis. The system is automated in several features to accommodate large numbers of candidate agents, and is generally designed to detect anti-HIV activity. However, compounds which degenerate or are rapidly metabolized in the culture conditions may not show activity in this screen.
(§1) Yet another test system employed to determine antiviral activity is called the CEM cell assay.
(§2) T4 lymphocytes (CEM cell line) are exposed to HIV at a virus to cell ratio approximately 0.05, and plated along with noninfected control cells in 96-well microliter plates.
(§3) The candidate agent is dissolved in dimethyl sulfoxide (unless otherwise noted), then diluted 1:200 in cell culture medium. Further dilutions (half-log10) are prepared before adding to an equal volume of medium containing either infected or noninfected cells. Cultures are incubated at 37° in a 5% carbon dioxide atmosphere for 6 or 7 days. The tetrazolium salt, XTT, is added to all wells, and cultures are incubated to allow formazan color development by viable cells (J. National Cancer Institute, 1989;81:577-586). Individual wells are analyzed spectrophotometrically to quantitate formazan production, and in addition are viewed microscopically for detection of viable cells confirmation of protective activity.
(§4) Drug-tested virus-infected cells are compared with drug-treated noninfected cells and with other appropriate controls (untreated infected and untreated noninfected cells, drug-contain wells without cells, etc.) on the same plate. Data are reviewed in comparison with other tests done at the same time and a determination about activity is made.

Data set [2] in a line: CEM cell growth inhibition (XTT, noninfected cells). The class given is cell-based. The conditions noted are these: human, CEM Cell Assay, drug alone, read-out: IC50 (Inhibitory Concentration where drug alone inhibits cell growth). The procedure: as §1, §2, §3, §4
Background: Tetrazolium assays rely on reduction of a dye to a coloured formazan, in cell work by metabolically active cells.

Setting [3] is: 10 μM compound, 2.8 μM NCp7, pH 7.4, 26° C., 90 minutes.

Regarding `Cc1cccc(C(=O)N[C@@H](CC(C)C)C(=O)O)c1SSc1c(C)cccc1C(=O)N[C@@H](CC(C)C)C(=O)O` [Example 56, [S-(R*,R*)]2-{2-[2-(1-Carboxy-3-methyl-butylcarbamoyl)-6-methyl-phenyldisulfanyl]-3-methyl-benzoylamino}-4-methyl-pentanoic acid], in data set [1] (setting [3]), the “% Zinc Extrusion Relative to Control” value amounted to 73%.
Same read-out and setting: the same measure for `O=C(c1ccccc1SSc1ccccc1C(=O)N1CCSCC1)N1CCSCC1` [Example 113, {2-[2-(Thiomorpholine-4-carbonyl)-phenyldisulfanyl]phenyl}-thiomorpholin-4-yl-methanone]: 67%.
`O=C(O)CN(CCN(CC(=O)O)CC(=O)O)CC(=O)O` [EDTA, reference compound]: in data set [1] (EDTA, 24 hours), the “% Zinc Extrusion Relative to Control” value worked out at 10%.
Take `CC(C)(C)[C@H](NC(=O)c1ccccc1SSc1ccccc1C(=O)N[C@H](C(=O)O)C(C)(C)C)C(=O)O` [Example 48, L,L-2-{2-[2-(1-Carboxy-2,2-dimethyl-propylcarbamoyl)-phenyldisulfanyl]-benzoylamino}-3,3-dimethyl-butyric acid]: the EC50 in the data set on HIV-1 was 18 µM. In addition, the CC50 in data set [2] is greater than 100 µM.
`NS(=O)(=O)c1ccc(NC(=O)c2cccnc2SSc2ncccc2C(=O)Nc2ccc(S(N)(=O)=O)cc2)cc1` [Example 25, 2,2'-Dithiobis[N-[4-(aminosulfonyl)phenyl]-3-pyridinecarboxamide]]: the “% Zinc Extrusion Relative to Control” value in data set [1] (setting [3]) is 73%.
With `O=C(c1ccccc1)c1ccccc1SSc1ccccc1C(=NO)c1ccccc1` [Example 150, {2-[2-(hydroxyimino-phenyl-methyl)-phenyldisulfanyl]phenyl}-phenyl-methanon], in data set [1] (setting [3]), the “% Zinc Extrusion Relative to Control” value is 36%.
Take `O=C(O)c1ccc(NC(=O)c2ccccc2SSc2ccccc2C(=O)Nc2ccc(C(=O)O)cc2)cc1` [Example 106, 4,4'-[dithiobis(2,1-phenylenecarbonylimino)bisbenzoic acid]]: the EC50 in the data set with HIV-1 amounted to 1.8 µM. The CC50 in data set [2] came to 22 µM.
On to `CC(=O)Nc1ccc(SSc2ccc(NC(C)=O)cc2C(=O)N[C@@H](CC(C)C)C(=O)O)c(C(=O)N[C@@H](CC(C)C)C(=O)O)c1` [Example 60, [S-(R*,R*)]2-{5-Acetylamino-2-[4-acetylamino-2-(1-carboxy-3-methyl-butylcarbamoyl)-phenyldisulfanyl]-benzoylamino}-4-methyl-pentanoic acid], for which the “% Zinc Extrusion Relative to Control” value in data set [1] (setting [3]) worked out at 65%.
On the same count and under the same terms, for `O=C(O)C[C@H](NC(=O)c1ccccc1SSc1ccccc1C(=O)N[C@@H](CC(=O)O)C(=O)O)C(=O)O` [Example 62, L,L-2-{2-[2-(1,2-Dicarboxy-ethylcarbamoyl)-phenyldisulfanyl]-benzoylamino}-succinic acid] the value was 73%.
In the case of `Cc1ccc(SSc2ccc(C)cc2C(=O)Nc2ccc(S(N)(=O)=O)cc2)c(C(=O)Nc2ccc(S(N)(=O)=O)cc2)c1` [Example 23, 2,2'-Dithiobis[N-[4-(aminosulfonyl)phenyl]-5-methylbenzamide]], the EC50 with HIV-1 is 4.3 µM. Besides, the CC50 in data set [2] was greater than 100 µM.
On to `COc1ccc(SSc2ccc(OC)cc2C(N)=O)c(C(N)=O)c1` [Example 70, 2,2'-Dithiobis[5-methoxy-benzamide]], for which the “% Zinc Extrusion Relative to Control” value in data set [1] (setting [3]) amounted to 74%.
Take `CC(C)C[C@H](NC(=O)c1ccc(F)cc1SSc1cc(F)ccc1C(=O)N[C@@H](CC(C)C)C(=O)O)C(=O)O` [Example 51, [S-(R*,R*)]2-{2-[2-(1-Carboxy-3-methyl-butylcarbamoyl)-5-fluoro-phenyldisulfanyl]-4-fluorobenzoylamino}-4-methyl-pentanoic acid]: the EC50 in the data set with HIV-1 was determined as 8.4 µM. The CC50 in data set [2] was 64 µM.
In the case of `COc1ccc(C(=O)Nc2ccc(S(N)(=O)=O)cc2)c(SSc2cc(OC)ccc2C(=O)Nc2ccc(S(N)(=O)=O)cc2)c1` [Example 19, 2,2'-Dithiobis[N-[4-(aminosulfonyl)phenyl]-4-methoxybenzamide]], the EC50 in the data set with HIV-1 is 2.4 µM. The CC50 in data set [2] was greater than 100 µM.
In the case of `CC(C)(C)C(=O)Nc1ccc(SSc2ccc(NC(=O)C(C)(C)C)cc2C(N)=O)c(C(N)=O)c1` [Example 73, 2,2'-Dithiobis[5-[(2,2-dimethyl-1-oxopropyl)amino]benzamide]], in the data set on HIV-1, the EC50 is 5 µM. Moreover, in data set [2], the CC50 was 70 µM.
The matching figures for `CC(C)(SSc1ccccc1C(=O)Nc1ccc(S(N)(=O)=O)cc1)C(N)C(=O)O` (stereo not drawn) [Example 138, 2-Amino-3-methyl-3-[2-(4-sulfamoylphenylcarbamoyl)phenyldisulfanyl]-butyric acid]: 6.3 µM and 66 µM.
The corresponding values for `COc1ccc(C(=O)N[C@@H](CC(C)C)C(=O)O)c(SSc2cc(OC)ccc2C(=O)N[C@@H](CC(C)C)C(=O)O)c1` [Example 54, [S-(R*,R*)]2-{2-[2-(1-Carboxy-3-methyl-butyl]carbamoyl)-5-methoxy-phenyldisulfanyl]-4-methoxybenzoylamino}-4-methyl-pentanoic acid] are 6.9 µM and 75 µM.
On to `COc1cccc(C(=O)Nc2ccc(S(N)(=O)=O)cc2)c1SSc1c(OC)cccc1C(=O)Nc1ccc(S(N)(=O)=O)cc1` [Example 18, 2,2'-Dithiobis[N-[4-(aminosulfonyl)phenyl]-3-methoxybenzamide]], for which the “% Zinc Extrusion Relative to Control” value in data set [1] (setting [3]) is given as 67%.
For the compound `NS(=O)(=O)c1ccc(NS(=O)(=O)c2ccccc2SSc2ccccc2S(=O)(=O)Nc2ccc(S(N)(=O)=O)cc2)cc1` [Example 145], in data set [1] (setting [3]), the “% Zinc Extrusion Relative to Control” value is 65%.
In the case of `NS(=O)(=O)c1ccccc1NC(=O)c1ccccc1SSc1ccccc1C(=O)Nc1ccccc1S(N)(=O)=O` [Example 102, 2,2'-Dithiobis[N-[2-(aminosulfonyl)phenyl]benzamide]], the EC50 in the data set with HIV-1 is 1.7 µM. In data set [2], the CC50 amounted to 68 µM.
On to `Cc1ccc(C(=O)N[C@@H](CC(C)C)C(=O)O)c(SSc2cc(C)ccc2C(=O)N[C@@H](CC(C)C)C(=O)O)c1` [Example 57, [S-(R*,R*)]2-{2-[2-(1-Carboxy-3-methyl-butylcarbamoyl)-5-methyl-phenyldisulfanyl]-4-methylbenzoylamino}-4-methyl-pentanoic acid], for which, in the data set on HIV-1, the EC50 is 6 µM. The CC50 in data set [2] is 71 µM.
For `O=C(Nc1ccc(Cl)cc1Cl)c1ccccc1SSc1ccccc1C(=O)Nc1ccc(Cl)cc1Cl` [Example 84, 2,2'-Dithiobis[N-(2,4-dichlorophenyl)benzamide]], in data set [1] (setting [3]), the “% Zinc Extrusion Relative to Control” value is given as 50%.
`CS(=O)(=O)c1ccc(NC(=O)c2ccccc2SSc2ccccc2C(=O)Nc2ccc(S(C)(=O)=O)cc2)cc1` [Example 94, 2,2'-Dithiobis[N-[4-(methylsulfonyl)phenyl]benzamide]]: the “% Zinc Extrusion Relative to Control” value in data set [1] (setting [3]) is listed as 62%.
Same read-out and setting: the same measure for `CC(C)NS(=O)(=O)c1ccc(NC(=O)c2ccccc2SSc2ccccc2C(=O)Nc2ccc(S(=O)(=O)NC(C)C)cc2)cc1` [Example 3, 2,2'-Dithiobis-N-[4[[(1-methylethyl)amino]sulfonyl]phenyl]benzamide]: 73%.

The record behind these values is patent US5734081A, “Arylthio compounds” (Warner-Lambert Company, priority 1995, dated 1998).
